According to article PMC11638703 (RSC Advances, 2024):
Where two headings read alike, the source gives them in different places.

Experiments:
[1] = system: MCF-7 cells; assay: Cytotoxicity, MTT assay, MCF-7 cells; format: cell-based, human; details: from MCF-7 IC50
[2] = system: HepG2 cells; assay: Cytotoxicity, MTT assay, HepG2 cells; format: cell-based; details: for LLE (lipophilic efficiency): from HepG2 IC50
[3] = biological target: T1, PIM-1 kinase (Homo sapiens, UniProt P11309); assay: PIM-1 kinase inhibitory assay; format: biochemical
[4] = biological target: T1, PIM-1 kinase; details: previously synthesized compound; ref [40]; cited from earlier work
[5] = system: THLE2 cells; assay: Cytotoxicity, MTT assay, normal THLE2 cells; format: cell-based
[6] = system: caspase 3; assay: Caspase 3 level by ELISA in treated HepG2 cells; format: cell-based, human; details: HepG2 treated at IC50 dose, 48 h, control 4.01
[7] = system: caspase 8; assay: Caspase 8 level by ELISA in treated HepG2 cells; format: cell-based, human; details: HepG2 treated at IC50 dose, 48 h, control 55.01
[8] = system: caspase 9; assay: Caspase 9 level by ELISA in treated HepG2 cells; format: cell-based, human; details: HepG2 treated at IC50 dose
[9] = system: HepG2 cells; assay: Annexin V/PI staining flow cytometry; format: cell-based; details: HepG2, IC50 dose, 48 h

T1 sequence (P11309 whole entry): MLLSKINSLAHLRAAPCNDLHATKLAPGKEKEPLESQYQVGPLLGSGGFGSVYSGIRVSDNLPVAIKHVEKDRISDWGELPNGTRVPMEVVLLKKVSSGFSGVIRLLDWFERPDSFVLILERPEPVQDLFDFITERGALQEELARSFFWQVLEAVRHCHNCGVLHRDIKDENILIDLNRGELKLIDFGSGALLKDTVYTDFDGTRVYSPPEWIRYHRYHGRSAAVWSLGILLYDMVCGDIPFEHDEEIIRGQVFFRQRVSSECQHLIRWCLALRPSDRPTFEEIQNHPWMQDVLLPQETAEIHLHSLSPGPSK

| SMILES | LLE (lipophilic efficiency) [1] | LLE (lipophilic efficiency) [2] | % of PIM-1 inhibition [3] | IC50 [3] | other results |
| --- | --- | --- | --- | --- | --- |
| COc1cc(-c2cc(-c3ccc(Cl)cc3)n(CN(C)C)c(=O)c2C#N)ccc1O [Compound 8, 6-(4-Chlorophenyl)-1-((dimethylamino)methyl)-4-(4-hydroxy-3-methoxyphenyl)-2-oxo-1,2-dihydropyridine-3-carbonitrile] | 2.97 | 2.76 | – | – | – |
| COc1cc(-c2cc(-c3ccc(Cl)cc3)n(CC(=O)n3nc(C)cc3C)c(=O)c2C#N)ccc1O [Compound 10, 6-(4-Chlorophenyl)-1-(2-(3,5-dimethyl-1H-pyrazol-1-yl)-2-oxoethyl)-4-(4-hydroxy-3-methoxyphenyl)-2-oxo-1,2-dihydropyridine-3-carbonitrile] | – | – | 87.6 ± 3.2% | 34.6 ± 0.12 nM | – |
| N#Cc1cnc2ncncc2c1 [Pyrido[2,3-d] pyrimidine-6-carbonitrile] | – | – | – | – | % of PIM-1 inhibition [4]: 97.8 ± 1.8% |
| CCOC(=O)Cn1c(-c2ccc(Cl)cc2)cc(-c2ccc(O)c(OC)c2)c(C#N)c1=O [Compound 5, Ethyl 2-(6-(4-chlorophenyl)-3-cyano-4-(4-hydroxy-3-methoxyphenyl)-2-oxopyridin-1(2H)-yl)acetate] | 2.65 | 2.93 | 83.4 ± 2.3% | 64.6 ± 0.2 nM | – |
| COc1cc(-c2cc(-c3ccc(Cl)cc3)n(CC(=O)NN)c(=O)c2C#N)ccc1O [Compound 9, 2-(6-(4-Chlorophenyl)-3-cyano-4-(4-hydroxy-3-methoxyphenyl)-2-oxopyridin-1(2H)-yl)acetohydrazide] | 5.41 | 5.60 | 98.8 ± 1.9% | 8.4 ± 0.2 nM | percentage of cell growth (inhibition) ([2]; HepG2, maximal concentration): 94%; maximum cell growth inhibition [5]: 13%; Concentration Caspase 3 [6]: 9.8 ng/mL; Concentration Caspase 8 [7]: 74.4 ng/mL; selectivity for caspase-9 compared to caspase-3 and caspase-8 [8]: ~2.6 fold; Concentration Caspase 9 ([8]; 48 h, ELISA, control 43.33): 112.6 ng/mL; early apoptosis [9]: 15.2%; late apoptosis [9]: 37.5%; necrosis cell death [9]: failed to enhance necrosis cell death; total apoptotic cell death vs untreated control [9]: 175 times; total apoptosis ([9]; untreated 0.30%): 52.7% |
